Assay results as given in patent publication US6994283B1, “Method for pulverizing to fine powder” (Nippon Shinyaku Co., Ltd., priority 1999, dated 2006).

Columns and labels:
[1] = Determination of particle diameter (ultracentrifugal automatic particle size distribution analyzer, silicone oil dispersion); format: physicochemical
Method: Determination of Particle Diameter
Twenty (20) mg each of the pre-pulverized present compound and the pulverizates of the compound as obtained in Examples 1 and 2 and Comparative Example 1 was taken in a test tube and 5 ml of silicone oil (product of Shin-Etsu Chemical Co.) was added. The mixture was stirred with a bench-top mixer for 20 seconds and further dispersed with a bench-top supersonic washer (UT-51N, product of Sharp Corporation) for 5 minutes. Then, the particle size distribution was determined with an ultracentrifugal automatic particle size distribution analyzer (CAPA-700, manufactured by Horiba, Ltd.).

[2] = Confirmation of crystalline state by powder X-ray diffraction; format: physicochemical; settings: after a pulverization time of 60 minutes, mill of the closed-circuit pulverizing type
Method: Confirmation of Crystalline State
Using each of the unpulverized present compound and the pulverizates of the same compound as obtained in Examples 1 and 2 and Comparative Example 1, the powder X-ray diffraction pattern was recorded with a powder x-ray diffraction analyzer (RAD-2B, manufactured by Rigaku Denki).
It will be apparent from the drawings that the pulverizates as micronized with a mill of the open-circuit pulverizing type retained the crystalline form, showing X-ray diffraction peaks.

[3] = Administration experiment (in vivo): oral capsule, plasma concentration of the metabolite by HPLC; settings: 4 male crab-eating monkeys, capsule of Example 1 pulverizate versus capsule of unpulverized compound
Description: Administration Experiment (in vivo)
A capsule prepared using the unpulverized present compound and a capsule prepared using the pulverizate obtained in Example 1 (the present pulverizate) according to the physical blending formula shown in Table 2 were respectively administered orally to 4 crab-eating monkeys (male, aged 6˜9 years). The blood was serially sampled and the plasma concentration of the metabolite of the present compound [(E)-4-[2-[2-[N-(4-methoxybenzenesulfonyl)amino]phenyl]-ethenyl]pyridine 1-oxide] was determined by HPLC.
The abscissa represents time (hrs) and the ordinate represents the plasma concentration (μg/ml) of the metabolite.

[4] = after 120 min. pulverization, planetary ball-mill
[5] = before pulverization (bulk powder)

COc1ccc(S(=O)(=O)N(C(C)=O)c2ccccc2/C=C/c2cc[n+]([O-])cc2)cc1 [Comparative Example, (E)-4-[2-[2-[N-acetyl-N-(4-methoxybenzenesulfonyl)amino]phenyl]ethenyl]-pyridine 1-oxide]
Mean particle diameter ([1]; after 30 min. pulverization, planetary ball-mill): 15.1 μm
Mean particle diameter ([1]; after 60 min. pulverization, planetary ball-mill): 12.4 μm
Fraction of particles ≧30 μm [1, 4]: 0%
Mean particle diameter [1, 4]: 10.7 ± 4.5 μm
Fraction of particles ≧30 μm [1, 5]: 35.5%
Fraction of particles ≧50 μm [1, 5]: 20.4%
Mean particle diameter [1, 5]: 25.9 ± 43.3 μm
Crystalline state (X-ray diffraction peaks) [2]: changed to a non-crystalline compound showing no X-ray diffraction peaks

COc1ccc(S(=O)(=O)N(C(C)=O)c2ccccc2/C=C/c2cc[n+]([O-])cc2)cc1 [Example 1, (E)-4-[2-[2-[N-acetyl-N-(4-methoxybenzenesulfonyl)amino]phenyl]ethenyl]-pyridine 1-oxide]
Fraction of particles ≧30 μm ([1]; after pulverization): 0%
Mean particle diameter ([1]; after pulverization): 9.7 ± 4.3 μm
Fraction of particles ≧30 μm [1, 5]: 35.5%
Fraction of particles ≧50 μm [1, 5]: 20.4%
Mean particle diameter [1, 5]: 25.9 ± 43.3 μm

COc1ccc(S(=O)(=O)N(C(C)=O)c2ccccc2/C=C/c2cc[n+]([O-])cc2)cc1 [Example 2, (E)-4-[2-[2-[N-acetyl-N-(4-methoxybenzenesulfonyl)amino]phenyl]ethenyl]-pyridine 1-oxide]
Fraction of particles ≧30 μm ([1]; after pulverization): 6.8%
Fraction of particles ≧50 μm ([1]; after pulverization): 0%
Mean particle diameter ([1]; after pulverization): 15.2 ± 6.8 μm
Fraction of particles ≧30 μm [1, 5]: 26.6%
Fraction of particles ≧50 μm [1, 5]: 12.8%
Mean particle diameter [1, 5]: 24.2 ± 31.2 μm

COc1ccc(S(=O)(=O)N(C(C)=O)c2ccccc2/C=C/c2cc[n+]([O-])cc2)cc1 [the present compound, (E)-4-[2-[2-[N-acetyl-N-(4-methoxybenzenesulfonyl)amino]phenyl]ethenyl]-pyridine 1-oxide]
Plasma concentration (metabolite determined by HPLC) [3]: significantly increased
